Data as given in patent US8633242B2, “Benzylidene indanones and processes for preparation and use thereof” (Council of Scientific and Industrial Research, priority 2011, dated 2014).
pIC50: −log10 of the molar value.

Assays:
[1] = test system: tubulin protein; assay: In-vitro tubulin polymerisation inhibition assay; type: biochemical; design: key to Tubulin polymerisation inhibition IC50: Inactive: inactive, if IC50 > 10 μM; settings: for Tubulin polymerisation inhibition IC50 / pIC50: tubulin 3 mg/mL, 37° C., 340 nm, 1 h; for pIC50: read-out: Tubulin polymerisation inhibition IC50
Protocol: The tubulin polymerization experiment was performed using ‘assay kit’ (Cytoskeleton USA) following manufacturer's protocol based on the procedure described by of Shelanski et al. (1973) and Lee et al. (1977). Briefly, tubulin protein (3 mg/mL) in tubulin polymerization buffer (80 mM PIPES, pH 6.9, 2 mM MgCl2, 0.5 mM EGTA, 1 mM GTP and 15% glycerol) was placed in pre-warmed 96-well microtiter plates at 37° C. in the presence of test compounds with variable concentrations. All samples were mixed well and polymerization was monitored kinetically at 340 nm every min for 1 h using a Spectramax plate reader. Podophyllotoxin and etoposide were used as positive controls and DMSO as negative control. The IC50 value was determined from dose-dependent analysis and is defined as the concentration that inhibits the rate of polymerization by 50%.
Podophyllotoxin and etoposide, standard tubulin polymerisation inhibitors were used as positive controls.

[2] = test system: MCF-7 (Breast cancer); assay: Sulphorhodamine B cytotoxicity assay, MCF-7; type: cell-based, human; design: key to Human cancer cell lines IC50, MCF-7 (Breast cancer): Inactive: inactive, if IC50 > 100 μM; settings: for pIC50: Homo sapiens, MCF7, read-out: Human cancer cell lines IC50, MCF-7 (Breast cancer)
Protocol: (§1) The benzylidene analogues were evaluated by Sulphorhodamine B Assay as per reported method [Skehan et al., J. Natl. Cancer Inst. 1990, 82, 1107]. The human cancer cell lines procured from National Cancer institute, Frederick, U.S.A. were used in present study. Cells were grown in tissue culture flasks in complete growth medium (RPMI-1640 medium with 2 mM glutamine, pH 7.4 supplemented with 10% fetal bovine serum, 100 μg/ml streptomycin and 100 units/ml penicillin) in a carbon dioxide incubator (37° C., 5% CO2, 90% RH). The cells at subconfluent stage were harvested from the flask by treatment with trypsin (0.05% in PBS (pH 7.4) containing 0.02% EDTA). Cells with viability of more than 98%, as determined by trypan blue exclusion, were used for determination of cytotoxicity. The cell suspension required concentration of cells was prepared in complete growth medium. Stock solution of 2×10^−2 M of compounds were prepared in DMSO and further dilution was carried out complete growth medium containing 50 μg/ml of gentamycin to obtained working test solution of required concentration. In vitro cytotoxicity against various human cancer cell lines was determined using 96-well cell culture plates. The 100 μl of cell suspension was added to each well of the 96-well cell culture plates. The cells were allowed to grow in CO2 incubator (37° C., 5% CO2, 90% RH) for 24 hours. The test materials in complete growth medium (100 μl) were added after 24 hours incubation to the wells containing cell suspension. The plates were further incubated for 48 hours (37° C. in an atmosphere of 5% CO2 and 90% relative humidity) in a carbon dioxide incubator after addition of test material and then the cell growth was stopped by gently layering trichloroacetic acid (50% TCA, 50 μl) on top of the medium in all the wells. The plates were incubated at 4° C. for one hour to fix the cells attached to the bottom of the wells. The liquid of all the wells was gently pipetted out and discarded. The plates were washed five times with distilled water to remove TCA, growth medium low molecular weight metabolites, serum proteins etc. and air-dried. Cell growth was measured by staining with sulforhodamine B dye. The adsorbed dye was dissolved in Tris-HCl Buffer (100 μl/well, 0.01M, pH 10.4) and plates were gently stirred for 10 minutes on a mechanical stirrer. The optical density (OD) was recorded on ELISA reader at 540 nm. 5-Fluorouracil, Paclitaxel (Taxol), Mitomycin-c and Adriamycin were used as positive controls.

[3] = test system: HCT (Colon); assay: Sulphorhodamine B cytotoxicity assay, HCT; type: cell-based, human; design: key to Human cancer cell lines IC50, HCT (Colon): Inactive: inactive, if IC50 > 100 μM; settings: SRB assay, 48 hours incubation; for pIC50: Homo sapiens, read-out: Human cancer cell lines IC50, HCT (Colon)
Protocol: as §1

[4] = test system: PC-3 (prostate); assay: Sulphorhodamine B cytotoxicity assay, PC-3; type: cell-based, human; design: key to Human cancer cell lines IC50, PC-3 (prostate): Inactive: inactive, if IC50 > 100 μM; settings: SRB assay, 48 hours incubation; for pIC50: Homo sapiens, read-out: Human cancer cell lines IC50, PC-3 (prostate)
Protocol: as §1

[5] = test system: HeLa (Cervix); assay: Sulphorhodamine B cytotoxicity assay, HeLa; type: cell-based, human; design: key to Human cancer cell lines IC50, HeLa (Cervix): Inactive: inactive, if IC50 > 100 μM; settings: SRB assay, 48 hours incubation; for pIC50: Homo sapiens, HeLa, read-out: Human cancer cell lines IC50, HeLa (Cervix)
Protocol: as §1

[6] = test system: A549 (Lung); assay: Sulphorhodamine B cytotoxicity assay, A549; type: cell-based, human; design: key to Human cancer cell lines IC50, A549 (Lung): Inactive: inactive, if IC50 > 100 μM; settings: SRB assay, 48 hours incubation; for pIC50: Homo sapiens, A549, read-out: Human cancer cell lines IC50, A549 (Lung)
Protocol: as §1

[7] = test system: DU-145 (prostate); assay: Sulphorhodamine B cytotoxicity assay, DU-145; type: cell-based, human; design: key to Human cancer cell lines IC50, DU-145 (prostate): Inactive: inactive, if IC50 > 100 μM; settings: SRB assay, 48 hours incubation; for pIC50: Homo sapiens, DU-145, read-out: Human cancer cell lines IC50, DU-145 (prostate)
Protocol: as §1

[8] = test system: THP-1 (Leukemia); assay: Sulphorhodamine B cytotoxicity assay, THP-1; type: cell-based, human; design: key to Human cancer cell lines IC50, THP-1 (Leukemia): Inactive: inactive, if IC50 > 100 μM; settings: for pIC50: Homo sapiens, THP-1, read-out: Human cancer cell lines IC50, THP-1 (Leukemia); for pIC50 / Human cancer cell lines IC50, THP-1 (Leukemia): SRB assay, 48 hours incubation
Protocol: as §1

Row | SMILES | Tubulin polymerisation inhibition IC50 [1] | pIC50 ([2]; SRB assay, 48 hours incubation) | melting point | pIC50 [3] | Human cancer cell lines IC50, PC-3 (prostate) [4] | Human cancer cell lines IC50, HeLa (Cervix) [5] | Human cancer cell lines IC50, A549 (Lung) [6] | Human cancer cell lines IC50, DU-145 (prostate) [7] | pIC50 [8] | Human cancer cell lines IC50, MCF-7 (Breast cancer) ([2]; SRB assay, 48 hours incubation) | Human cancer cell lines IC50, HCT (Colon) [3] | Human cancer cell lines IC50, THP-1 (Leukemia) [8] | inhibition of tubulin polymerisation, in words [1] | pIC50 [1] | pIC50 [4] | pIC50 [6] | activity against leukemia cell lines (THP), in words [8] | anticancer activity against human breast cancer cells (MCF-7), in words [2] | pIC50 [5] | pIC50 [7]
1 | COc1cc(C2/C(=C/c3ccc([N+](=O)[O-])cc3)C(=O)c3cc(OC)c(OC)c(OC)c32)cc(OC)c1OC (stereo not shown) [Compound 11, 2-(4″-nitrobenzlidene),3-(3′,4′,5′-trimethoxyphenyl)-4,5,6-trimethoxy indan-1-one] | Inactive | 4.06 | 190 to 192 °C | 4.01 | Inactive | Inactive | Inactive | Inactive | 4.05 |  |  |  |  |  |  |  |  |  |  | 
2 | COc1cc(C2/C(=C/c3cccc([N+](=O)[O-])c3)C(=O)c3cc(OC)c(OC)c(OC)c32)cc(OC)c1OC (stereo not shown) [Compound 12, 2-(3″-nitrobenzylidene),3-(3′,4′,5′-trimethoxyphenyl)-4,5,6-trimethoxy indan-1-one] | Inactive |  | 215 to 217 °C |  | Inactive | Inactive | Inactive | Inactive |  | Inactive | Inactive | Inactive |  |  |  |  |  |  |  | 
3 | COc1cc(C2/C(=C/c3ccc(C(F)(F)F)cc3)C(=O)c3cc(OC)c(OC)c(OC)c32)cc(OC)c1OC (stereo not shown) [Compound 20, 2-(4″-trifluoromethylbenzylidene), 3-(3′,4′,5′-trimethoxyphenyl)-4,5,6-trimethoxy indan-1-one] |  | 4.16 | 188 to 190 °C | 4.04 |  | Inactive |  | Inactive | 5.06 |  |  |  | strong inhibition | 6.22 | 4.55 | 4.21 | potent activity |  |  | 
4 | COc1ccc(/C=C2\C(=O)c3cc(OC)c(OC)c(OC)c3C2c2cc(OC)c(OC)c(OC)c2)cc1 (stereo not shown) [Compound 10, 2-(4″-methoxybenzylidene),3(3′,4′,5′-trimethoxyphenyl)-4,5,6-trimethoxy indan-1-one] |  | 5.50 | 188 to 190 °C | 4.73 |  |  |  |  | 6.06 |  |  |  | strong inhibition | 5.33 | 4.18 | 4.87 | potent activity | potent anticancer activity | 4.68 | 4.35
5 | COc1ccc(/C=C2\C(=O)c3cc(OC)c(OC)c(OC)c3C2c2cc(OC)c(OC)c(OC)c2)cc1OC (stereo not shown) [Compound 13, 2-(3″,4″-dimethoxybenzylidene), 3-(3′,4′,5′-trimethoxyphenyl)-4,5,6-trimethoxy indan-1-one] |  | 4.09 | 179 to 180 °C |  | Inactive | Inactive | Inactive | Inactive | 4.21 |  | Inactive |  | strong inhibition | 6.21 |  |  |  |  |  | 
6 | COc1cc(C2/C(=C/c3ccc(OC)c(OC)c3OC)C(=O)c3cc(OC)c(OC)c(OC)c32)cc(OC)c1OC (stereo not shown) [Compound 15, 2-(2″,3″,4″-trimethoxybenzylidene), 3-(3′,4′,5′-trimethoxyphenyl)-4,5,6-trimethoxy, indan-1-one] | Inactive | 5.05 | 163 to 165 °C | 4.10 |  | Inactive |  | Inactive |  |  |  | Inactive |  |  | 4.07 | 4.03 |  | potent anticancer activity |  | 
7 | COc1cc(C2/C(=C/c3ccc(F)cc3)C(=O)c3cc(OC)c(OC)c(OC)c32)cc(OC)c1OC (stereo not shown) [Compound 18, 2-(4″-fluorobenzylidene), 3-(3′,4′,5′-trimethoxyphenyl)-4,5,6-trimethoxy indan-1-one] |  | 6.17 | 156 to 158 °C |  |  |  |  |  | 5.54 |  | Inactive |  | strong inhibition | 6.14 | 4.41 | 4.57 | potent activity | potent anticancer activity | 4.18 | 4.27
